Test system: intestinal loop of C3H mice
Parameters: species or system C3H mouse
Details: mouse, in vivo

Question: cholera toxin was tested. Which “weight per cm of intestine (milligrams per centimeter of intestine)” value did it give?
Answer: Its value is 126.7 mg.

Reference: US4898815A (priority 1983, dated 1990)
